Numbers after ± are expanded uncertainties.
Key:
[1] = Liquid; for speed of sound: Frequency=2 MHz, Pulse-echo method; for mass density: Vibrating tube method
[2] = molar heat capacity at constant pressure; settings: 101.33 kPa, Liquid, Small sample (50 mg) DSC

CCCCCCCCCCCC(=O)OC [methyl dodecanoate]
[1]
Settings	mass density [kg/m3]	speed of sound [m/s]
293.15 K, 100 kPa	–	1351.3 ± 1.4
293.15 K, 101.33 kPa	869.2 ± 0.9	–
293.15 K, 10000 kPa	–	1400.9 ± 1.4
293.15 K, 20000 kPa	–	1445.1 ± 1.4
293.15 K, 30000 kPa	–	1486.4 ± 1.4
293.15 K, 40000 kPa	–	1526.9 ± 1.4
293.15 K, 50000 kPa	–	1563.8 ± 1.4
293.15 K, 60000 kPa	–	1600 ± 1.4
293.15 K, 70000 kPa	–	1628.6 ± 1.4
293.15 K, 80000 kPa	–	1660.5 ± 1.4
293.15 K, 90000 kPa	–	1690.9 ± 1.5
303.15 K, 101.33 kPa	861.4 ± 0.9	–
313.15 K, 100 kPa	–	1276.4 ± 1.3
313.15 K, 101.33 kPa	853.8 ± 0.9	–
313.15 K, 10000 kPa	–	1328 ± 1.3
313.15 K, 20000 kPa	–	1375.3 ± 1.3
313.15 K, 30000 kPa	–	1420 ± 1.3
313.15 K, 40000 kPa	–	1461.6 ± 1.4
313.15 K, 50000 kPa	–	1500.9 ± 1.4
313.15 K, 60000 kPa	–	1537 ± 1.4
313.15 K, 70000 kPa	–	1573.3 ± 1.4
313.15 K, 80000 kPa	–	1607.4 ± 1.4
313.15 K, 90000 kPa	–	1637.8 ± 1.4
313.15 K, 100000 kPa	–	1671.1 ± 3.5
313.15 K, 120000 kPa	–	1728.6 ± 3.6
313.15 K, 140000 kPa	–	1784.4 ± 3.8
323.15 K, 101.33 kPa	845.8 ± 0.9	–
333.15 K, 100 kPa	–	1205.5 ± 1.3
333.15 K, 101.33 kPa	837.9 ± 0.9	–
333.15 K, 10000 kPa	–	1259.6 ± 1.3
333.15 K, 20000 kPa	–	1311 ± 1.3
333.15 K, 30000 kPa	–	1357.5 ± 1.3
333.15 K, 40000 kPa	–	1401 ± 1.3
333.15 K, 50000 kPa	–	1441.3 ± 1.3
333.15 K, 60000 kPa	–	1480.9 ± 1.3
333.15 K, 70000 kPa	–	1515.7 ± 1.4
333.15 K, 80000 kPa	–	1550.8 ± 1.4
333.15 K, 90000 kPa	–	1585.9 ± 1.4
333.15 K, 100000 kPa	–	1621.9 ± 3.5
333.15 K, 120000 kPa	–	1682 ± 3.6
333.15 K, 140000 kPa	–	1739.2 ± 3.7
333.15 K, 160000 kPa	–	1791.8 ± 3.8
333.15 K, 180000 kPa	–	1843.5 ± 3.9
333.15 K, 200000 kPa	–	1893.2 ± 4
343.15 K, 101.33 kPa	830 ± 0.9	–
353.15 K, 100 kPa	–	1133.5 ± 1.2
353.15 K, 101.33 kPa	822.2 ± 0.8	–
353.15 K, 10000 kPa	–	1192.2 ± 1.3
353.15 K, 20000 kPa	–	1247.2 ± 1.3
353.15 K, 30000 kPa	–	1295.9 ± 1.3
353.15 K, 40000 kPa	–	1342.5 ± 1.3
353.15 K, 50000 kPa	–	1386.1 ± 1.3
353.15 K, 60000 kPa	–	1426.2 ± 1.3
353.15 K, 70000 kPa	–	1463.8 ± 1.3
353.15 K, 80000 kPa	–	1500.1 ± 1.3
353.15 K, 90000 kPa	–	1534.8 ± 1.4
353.15 K, 100000 kPa	–	1568.3 ± 3.4
353.15 K, 120000 kPa	–	1632.8 ± 3.5
353.15 K, 140000 kPa	–	1690.8 ± 3.6
353.15 K, 160000 kPa	–	1744.4 ± 3.7
353.15 K, 180000 kPa	–	1802.7 ± 3.8
353.15 K, 200000 kPa	–	1851.2 ± 3.9

viscosity [mPa·s], [1]
Settings	293.15 K	313.15 K	333.15 K	353.15 K
101.33 kPa, Capillary tube (Ostwald / Ubbelohde) method	3.14 ± 0.04	2.05 ± 0.03	1.45 ± 0.02	1.09 ± 0.01
10000 kPa, quartz crystal resonator	3.53 ± 0.11	2.3 ± 0.07	1.61 ± 0.05	1.21 ± 0.04
20000 kPa, quartz crystal resonator	3.96 ± 0.12	2.59 ± 0.08	1.78 ± 0.06	1.33 ± 0.04
30000 kPa, quartz crystal resonator	4.4 ± 0.14	2.85 ± 0.09	1.98 ± 0.06	1.48 ± 0.05
40000 kPa, quartz crystal resonator	5 ± 0.15	3.16 ± 0.1	2.18 ± 0.07	1.62 ± 0.05
50000 kPa, quartz crystal resonator	5.64 ± 0.17	3.5 ± 0.11	2.39 ± 0.08	1.76 ± 0.06
60000 kPa, quartz crystal resonator	6.21 ± 0.19	3.85 ± 0.12	2.62 ± 0.08	1.92 ± 0.06
70000 kPa, quartz crystal resonator	6.79 ± 0.21	4.22 ± 0.13	2.82 ± 0.09	2.08 ± 0.07
80000 kPa, quartz crystal resonator	7.58 ± 0.23	4.64 ± 0.14	3.07 ± 0.1	2.25 ± 0.07
90000 kPa, quartz crystal resonator	–	5.06 ± 0.16	3.36 ± 0.1	2.46 ± 0.08
100000 kPa, quartz crystal resonator	–	5.55 ± 0.26	3.63 ± 0.17	2.65 ± 0.12
120000 kPa, quartz crystal resonator	–	6.67 ± 0.31	4.26 ± 0.2	3.09 ± 0.14
140000 kPa, quartz crystal resonator	–	7.67 ± 0.35	4.95 ± 0.23	3.54 ± 0.16
160000 kPa, quartz crystal resonator	–	–	5.75 ± 0.26	4.06 ± 0.19
180000 kPa, quartz crystal resonator	–	–	6.56 ± 0.3	4.64 ± 0.21
200000 kPa, quartz crystal resonator	–	–	7.56 ± 0.35	5.34 ± 0.25

[2]
Settings	molar heat capacity at constant pressure [J/K/mol]
297.91 K	433.79 ± 7.5
307.79 K	438.57 ± 7.6
317.66 K	443.29 ± 7.7
327.54 K	448.34 ± 7.8
337.42 K	453.83 ± 7.9
347.29 K	459.28 ± 8
357.17 K	464.66 ± 8.1
367.05 K	470.72 ± 8.1
376.92 K	477.82 ± 8.3
386.8 K	485.49 ± 8.4
